Legend:
recombinant GSK3β = recombinant GSK3β (Homo sapiens, UniProt P49841); test: ADP-Glo kinase assay of GSK3β activity; assay type: biochemical; conditions: for IC50: GSK3β kinase activity, 2 μM ATP
Procedure: Activity of recombinant GSK3β is measured using ADP-Glo Kinase assay according to supplier's standard protocol with minor modifications in 384 well format. Briefly, kinase reaction mixture was prepared by adding […] of recombinant enzyme, 2 μM ATP, 1 μg of enzyme substrate along with test compound or DMSO to a final volume of 5 μl. The kinase reaction was performed by incubating the mixture at room temperature for 17 mins. To correct reaction back ground a substrate blank reaction was also performed. ADP glow reagent (equal volume to reaction mixture) was added to the reaction mixture to deplete any unused ATP added to the kinase reaction and incubated at further 40 min at 27° C. Then 10 μl of kinase detection reagent was added followed by incubation for 30 min at 27° C. to convert ADP to ATP and introduce luciferase to measure kinase activity. The luminescence was measured using luminometer (Perkin Elmer) which is directly proportional to ADP generated in kinase reaction. To determine the amount of ADP produced in kinase reaction and calculate specific activity of the enzyme, a conversion curve is prepared by serial dilution of ADP and ATP mixture. Specific activity of the GSK3β was calculated using the following equation. (ADP(kinase reaction)−ADP(substrate blank)) in mmol)/(Reaction time in min)×(GSK3β in mg).

[1] = test system: cellular GSK3β signalling in PANC-1 cells; test: Western blot of GSK3β signalling and NFkB target proteins in PANC-1 cells; assay type: cell-based; conditions: for phosphorylation of GSK3β: PANC-1 cells treated with compound; for β-catenin level: PANC-1 cells versus control (DMSO); for BCL2 and XIAP levels: compound with TRAIL versus TRAIL alone or compound alone; for bcl2 and xiap expression: dose dependence of compound; for Cyclin D1 levels / phosphorylation of GSK3β (9th serine residue): in combination with TRAIL; for p-GS (phosphorylated glycogen synthase) level: increasing concentrations of compound, total GS unaffected
Procedure: The compounds inhibiting GSK3β activity in-vitro added to PANC-1 cells to determine their potential against intracellular GSK3β signalling pathways in cancer cells. Briefly, PANC-1 cells were plated in 60 mm plates (100,000 cells/4 mL) and cultured in the standard DMEM medium containing 10% serum. After culturing for 18 hrs, different concentrations of test compounds or standard controls prepared in DMSO were added to culture media to achieve final concentration 0 to 100 μM of compound to cells. Cells were further continued to grow for 48 h with constant supply of 5% CO2 in humid incubator. The time course (0 to 48 h) experiment was carried out simultaneously with fixed concentration of compound showing 50% growth inhibition. At the end of the experiments, all cells were scraped directly in cold PBS and washed for 3 times before lysis directly in 2D lysis buffer (8M urea, 2M thiourea, 4% CHAPS, 4 mM tris base and 65 mM DTT) for isolation of proteins to perform western blots. The protein concentration was determined by modified Bradford assay.
To perform western blot, protein extracts were separated on 12% SDS-PAGE and electrophoretically (1 mA/cm^2 membrane for 1 hr) transferred onto the nitrocellulose membrane by semi-dry method. After protein transfer, membrane was stained with Ponceau S solution (0.2% Ponceau S in 3% Trichloroacetic acid) for 2 min to see efficiency of electrophoretic transfer. The membrane was destained in ddH2O to visualize the protein bands and further destained with TBST (20 mM Tris, 138 mM NaCl, pH 7.6 and 0.1% Tween 20) for blotting. To avoid non-specific detection of target proteins, blotted membranes were blocked with BSA (3% BSA in TBST solution). All antibodies against specific protein targets of interest were purchased from Cell Signaling Technology, USA if not mentioned specifically. Then the blots were incubated with antibodies prepared in blocking buffer (1:1000 Antibody to blocking buffer dilution) for 18 h with constant shaking at 4° C. Three washing steps in PBS each for 5 mins removed the excess and non-specific antibodies. For visualization, blots were incubated with secondary antibody conjugated to either horseradish peroxidase or alkaline phosphatase [anti-(mouse IgG) or anti-(rabbit IgG), diluted 1:5000 in TBST] for 1 h at room temperature. After three washes in PBS, the reaction was developed either by addition of LumiGLO substrate (Cell Signaling Technology) followed by capturing on X-ray film or addition of chromogenic NBT (nitro-blue tetrazolium chloride) and BCIP (5-bromo-4-chloro-3′-indolyphosphate p-toluidine salt) substrate for alkaline phosphatase developing purple colored bands. The blots were scanned for densitometry performed using Image-J program.

recombinant GSK3β, sequence (P49841 whole entry): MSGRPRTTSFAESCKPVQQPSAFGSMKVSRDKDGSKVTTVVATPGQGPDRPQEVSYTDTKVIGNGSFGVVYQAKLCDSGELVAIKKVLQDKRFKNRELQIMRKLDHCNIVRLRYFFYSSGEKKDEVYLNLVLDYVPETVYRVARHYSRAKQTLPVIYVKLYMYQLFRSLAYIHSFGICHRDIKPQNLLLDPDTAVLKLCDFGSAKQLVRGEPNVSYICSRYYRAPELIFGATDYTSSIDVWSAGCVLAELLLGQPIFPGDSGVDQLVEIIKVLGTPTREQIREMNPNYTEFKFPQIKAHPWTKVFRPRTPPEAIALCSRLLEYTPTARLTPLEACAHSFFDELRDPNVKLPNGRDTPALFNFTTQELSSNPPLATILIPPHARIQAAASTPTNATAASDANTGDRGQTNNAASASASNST

| inhibition of GSK3β in in-vitro kinase assays (recombinant GSK3β) | IC50 (recombinant GSK3β) [µM] | SMILES | phosphorylation of GSK3β [1] | β-catenin level [1] | BCL2 and XIAP levels [1] | bcl2 and xiap expression [1] | Cyclin D1 levels [1] | phosphorylation of GSK3β (9th serine residue) [1] | p-GS (phosphorylated glycogen synthase) level [1] |
| --- | --- | --- | --- | --- | --- | --- | --- | --- | --- |
| potent inhibition | 3.88 ± 0.01 | CCOC(=O)c1ccc(-c2ccccc2OCc2cn(CC3CC4(CO3)C(=O)Nc3ccccc34)nn2)nc1C (stereo not drawn) [AB-O, Ethyl 2-methyl-6-(2-((1-((2′-oxo-4,5-dihydro-2H-spiro[furan-3,3′-indoline]-5-yl)methyl)-1H-1,2,3-triazol-4-yl)methoxy)phenyl)nicotinate] | significantly decreased | accumulation of β-catenin | synergistic effect | decreased in a dose dependent manner | significantly reduced | synergistic effect | significantly decreased |
| potent inhibition | 4.92 ± 0.13 | COc1ccccc1N1CCN(CC2CC3(CO2)C(=O)Nc2ccccc23)CC1 (stereo not drawn) [AB-U, 5-((4-(2-Methoxyphenyl)piperazin-1-yl)methyl)-4,5-dihydro-2H-spiro[furan-3,3′-indolin]-2′-one] | significantly decreased | accumulation of β-catenin | synergistic effect | decreased in a dose dependent manner | significantly reduced | synergistic effect | significantly decreased |

Source: US11306100B2, “Spirooxindole compounds as GSK3B inhibitors and process for preparation thereof” (COUNCIL OF SCIENTIFIC & INDUSTRIAL RESEARCH, priority 2017, dated 2022)
